Source: patent publication US9777070B2, “Anti-PTK7 antibody-drug conjugates” (Pfizer Inc., priority 2014, dated 2017)
≈ marks a conversion by molar mass, not a printed value. Square brackets hold non-standard residues; d marks the D form. Peptide text beside a SMILES is read from it. * marks the point of attachment. Dolaproine = CO[C@@H]([C@@H]1CCCN1)[C@@H](C)C(=O)O; Dil = CC[C@H](C)[C@H](NC)[C@@H](CC(=O)O)OC; Doe = c1ccc(C[C@H](N*)c2nccs2)cc1; Aib = CC(C)(N)C(=O)O

Experiments:
H661 lung cancer cells = assay: Microtubule structure by anti-tubulin immunofluorescence; format: cell-based, human; conditions: 48 hours, ADC or mAb 0-4 μg/mL, free 0101 0.1-10 nM, FIG. 22
Procedure: The cells were then fixed in 3% paraformaldehyde, washed with PBS, permeabilized with 0.5% Triton-X® (Sigma Chemical) in PBS, washed with PBS, and incubated with blocking buffer (5% normal goat serum and 0.2% Tween-20 in PBS). Cells were incubated with the primary anti-α-tubulin antibody (Sigma NoT9026, clone DM1A) in blocking buffer for 1 hour at room temperature. Afterwards, the cells were washed with PBS and incubated for 30 minutes with an Alexa Fluor® 488-conjugated secondary antibody (Invitrogen Corp) and 4′,6-diamidino-2-phenylindole (DAPI) to stain the DNA. The cells were visualized on a Zeiss LSM 510 Meta confocal microscope.

H446 cells = assay: In vitro cytotoxicity, MTS, 4 days; format: cell-based; conditions: Homo sapiens, NCI-H446, 96 h
Procedure: (§1) The cytotoxicity of the antibody-drug conjugate hu24-vc0101 was evaluated on cell lines that express the target PTK7. The engineered HEK293T-PTK7 over-expressing cell line was plated into a clear flat-bottom tissue culture plate (BD Falcon) at 500 cells per 180 μL of cell culture media per well. Human cancer cell lines were also tested in this assay and plated at a density that was previously determined to be optimal for each cell line according to their rate of growth (H661 1500 cells/well and H446 9600 cells/well in 150 μl). The cells were incubated overnight at 37° C. in a 5% CO2 incubator. On the following day, the hu24-vc0101 ADC and the 8.84 Ab-vc0101 ADC (negative control) were added to the cells on a 10 point concentration curve in triplicate samples starting with 3 or 10 μg/mL with 1:3 dilutions in cell culture media. The plate was incubated in a 37° C., 5% CO2 incubator for 4 days. The MTS assay (Promega CellTiter 96 Aqueous Non-Radioactive Cell Proliferation Assay) was used according to the supplier's instructions. 30 μL (H446, H661) or 40 μL (HEK293T-PTK7) of the combined MTS reagent was added to each well, and the plate was incubated in a 37° C., 5% CO2 incubator for 2 hours. The OD was determined at 490 nm with a 96-well plate reader. The average reading from wells with media alone was subtracted from the readings of wells with cells to control for background OD.

H661 cells = assay: In vitro cytotoxicity, MTS, 4 days; format: cell-based; conditions: Homo sapiens, NCI-H661, 96 h
Procedure: as §1

## CC[C@H](C)[C@@H]([C@@H](CC(=O)N1CCC[C@H]1[C@H](OC)[C@@H](C)C(=O)N[C@@H](Cc1ccccc1)c1nccs1)OC)N(C)C(=O)[C@@H](NC(=O)C(C)(C)N)C(C)C [compound 0101, 2-methylalanyl-N-[(3R,4S,5S)-3-methoxy-1-{(2S)-2-[(1R,2R)-1-methoxy-2-methyl-3-oxo-3-{[(1S)-2-phenyl-1-(1,3-thiazol-2-yl)ethyl]amino}propyl]pyrrolidin-1-yl}-5-methyl-1-oxoheptan-4-yl]-N-methyl-L-valinamide] (H-[Aib]V[Dil][Dolaproine]-Doe)
H661 lung cancer cells
  effect on microtubule structure and cell cycle: disrupted microtubule structure and led to G2/M cell cycle arrest
H446 cells
  IC50: 0.59 ng/mL (≈ 0.794 nM)
H661 cells
  IC50: 0.33 ng/mL (≈ 0.444 nM)
